Consider 1 compound from paper PMC10526248, “Zeolitic Imidazolate Framework-8 Composite-Based Enzyme-Linked Aptamer Assay for the Sensitive Detection of Deoxynivalenol” (Biosensors, 2023).

The target of this experiment is T1, horseradish peroxidase (HRP) (Armoracia rusticana, UniProt P00433).
T1 construct: gene PRXC1A; free enzyme for this row
T1 sequence (P00433 31-338): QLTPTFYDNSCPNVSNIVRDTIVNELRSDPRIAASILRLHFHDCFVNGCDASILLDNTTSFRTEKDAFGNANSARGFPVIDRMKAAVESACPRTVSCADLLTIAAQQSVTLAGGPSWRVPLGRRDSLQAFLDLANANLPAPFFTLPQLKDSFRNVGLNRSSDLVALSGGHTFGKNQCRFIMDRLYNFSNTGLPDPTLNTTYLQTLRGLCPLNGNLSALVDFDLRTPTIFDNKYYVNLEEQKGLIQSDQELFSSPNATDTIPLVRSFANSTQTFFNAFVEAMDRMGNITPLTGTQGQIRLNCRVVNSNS
Kind of experiment: TMB oxidation, absorbance at […] nm after acid stop. Conditions: free HRP; co-substrate H2O2; oxidation also seen with ZIF-8-encapsulated HRP. In kind it is biochemical.

As for `Cc1cc(-c2cc(C)c(N)c(C)c2)cc(C)c1N` [TMB, 3,3′,5,5′-Tetramethylbenzidine], the “TMB oxidation, absorbance at 450 nm after acid stop” value was “HRP, HRP@ZIF-8, HRP&Au@ZIF-8 and HRP&Au@ZIF-8/cDNA were all able to catalyze TMB oxidation”.
